Experimental data: the supplement of paper PMC5579334
± gives the standard deviation of the averaged measurements.

Key:
[1] = system: HSC2 (primary human Schwann cells); assay: drug sensitivity score (DSS, CellTiter-Glo viability, 72 h) (DSS (dimensionless)); higher = more sensitive; extreme values may be limits of the assay
In short: (§1)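 MPNST cell lines and primary human Schwann cells (750–1000 cells per well) went into 384-well plates preprinted with each compound at five concentrations in 10-fold steps. Plates were incubated 72 h at 37 °C, 5% CO2. Viability was read as CellTiter-Glo ATP luminescence, scaled between vehicle and positive-control wells, with duplicates averaged where present. Percent inhibition is at the top concentration; drug sensitivity score and relative IC50 (censored at top concentration) come from four-parameter logistic fits.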

STS26T [2] = assay: as above
In short: as §1

ST8814 [3] = assay: as above
In short: as §1

YST-1 [4] = assay: as above
In short: as §1

S1507-2 [5] = assay: as above
In short: as §1

HS-PSS [6] = assay: as above
In short: as §1

HS-Sch-2 [7] = assay: as above
In short: as §1

[8] = system: HSC1 (primary human Schwann cells); assay: as above
In short: as §1

S462 [9] = assay: as above
In short: as §1

[10] = system: HSC2 (primary human Schwann cells); assay: drug sensitivity score (DSS, CellTox-Green cytotoxicity, 72 h) (DSS (dimensionless)); higher = more cytotoxic; extreme values may be limits of the assay
In short: (§2)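 MPNST cell lines and primary human Schwann cells were incubated 72 h at 37 °C in 384-well plates holding five 10-fold compound dilutions. CellTox-Green was added before seeding at a final 1:1000 dilution and reported fluorescence from DNA released by disrupted cells. Signals were scaled to vehicle and positive-control wells, and cultures failing plate quality control were dropped. Drug sensitivity score and relative IC50 come from four-parameter logistic fits, with IC50 censored at the top concentration.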

STS26T [11] = assay: as above
In short: as §2

ST8814 [12] = assay: as above
In short: as §2

S1507-2 [13] = assay: as above
In short: as §2

HS-PSS [14] = assay: as above
In short: as §2

[15] = system: HSC1 (primary human Schwann cells); assay: as above
In short: as §2

[16] = system: HSC2 (primary human Schwann cells); assay: % inhibition of CellTiter-Glo viability at highest tested concentration (72 h), relative to DMSO and benzethonium chloride controls; higher = more inhibition
In short: as §1

STS26T [17] = assay: as above
In short: as §1

ST8814 [18] = assay: as above
In short: as §1

YST-1 [19] = assay: as above
In short: as §1

S1507-2 [20] = assay: as above
In short: as §1

HS-PSS [21] = assay: as above
In short: as §1

HS-Sch-2 [22] = assay: as above
In short: as §1

[23] = system: HSC1 (primary human Schwann cells); assay: as above
In short: as §1

S462 [24] = assay: as above
In short: as §1

Compound	drug sensitivity score [1]	drug sensitivity score (STS26T [2])	drug sensitivity score (ST8814 [3])	drug sensitivity score (YST-1 [4])	drug sensitivity score (S1507-2 [5])	drug sensitivity score (HS-PSS [6])	drug sensitivity score (HS-Sch-2 [7])	drug sensitivity score [8]	drug sensitivity score (S462 [9])	drug sensitivity score [10]	drug sensitivity score (STS26T [11])	drug sensitivity score (ST8814 [12])	drug sensitivity score (S1507-2 [13])	drug sensitivity score (HS-PSS [14])	drug sensitivity score [15]	% inhibition [16] [%]	% inhibition (STS26T [17]) [%]	% inhibition (ST8814 [18]) [%]	% inhibition (YST-1 [19]) [%]	% inhibition (S1507-2 [20]) [%]	% inhibition (HS-PSS [21]) [%]	% inhibition (HS-Sch-2 [22]) [%]	% inhibition [23] [%]	% inhibition (S462 [24]) [%]
CC[C@@H]1C(=O)N(C)c2cnc(Nc3ccc(C(=O)N[C@H]4CC[C@H](N5CCN(CC6CC6)CC5)CC4)cc3OC)nc2N1C(C)C [Volasertib] (max concentration tested 1000 nM)	14.8	23.5	14.4	15	17.138 ± 0.0087	8.74	19.5	10.6	21.2 ± 0.31	19.2	30.8	13.9	13.2 ± 1.2	0	12.8	79.3	78.3	80.6	55.3	79.2 ± 8.9	59.5	59.3	53	95.95 ± 0.59
C[C@]1(O)C[C@@H](c2nc(-c3ccc4ccc(-c5ccccc5)nc4c3)c3c(N)nccn32)C1 [Linsitinib] (max concentration tested 10000 nM)	0	0.527	0	11.6	5.34 ± 1.7	0	2.13	5.89	5.33 ± 1.5	0	0	0	0.228 ± 0.32	0	0	11.7	13	11.1	82.4	24.6 ± 0.99	-2.81	25.6	27	30.7 ± 0.84
CC(C)n1cnc2c(NCCc3ccc(O)cc3)nc(-c3csc4ccccc34)nc21 [StemRegenin 1] (max concentration tested 10000 nM)	2.51	1.69	1.77	0	0.495 ± 0.7	2.39	4.66	1.71	0.493 ± 0.7	0	0.0972	0	0	0	0	37	41.7	31.3	-1.94	19 ± 17	46.5	92.9	42	15.8 ± 7.6
CC1=NN(c2ccc(C(=O)O)cc2)C(=O)C1=Cc1ccc(-c2cc(C)c(C)cc2[N+](=O)[O-])o1 [C646] (max concentration tested 25000 nM)	0	0	0	0.68	0.311 ± 0.44	0.34	0	0	0.301 ± 0.43	1.71	0	0	2.69 ± 3.8	0	0	-4.28	1.97	3.46	19.6	9.84 ± 4.1	17.2	-1.27	-3.92	1.13 ± 8.9
O=C1c2c(O)ccc(O)c2C(=O)c2c(NCCNCCO)ccc(NCCNCCO)c21 [Mitoxantrone] (max concentration tested 1000 nM)	5.2	2.45	2.63	10.7	2.8 ± 1.2	1.94	4.38	2.89	5.57 ± 0.84	0	1.34	1.65	0	0	0	43	53.5	46.7	77	43.44 ± 0.12	28.8	42.7	37.8	72.66 ± 0.27
C[C@]12O[C@H](C[C@]1(O)CO)n1c3ccccc3c3c4c(c5c6ccccc6n2c5c31)CNC4=O [Lestaurtinib] (max concentration tested 1000 nM)	13.2	5.07	6.44	3.41	9.04 ± 0.52	5.63	7.66	11.2	11.7 ± 0.16	0.0333	0.547	1.63	1.52 ± 2.1	0	0.556	51.8	54.5	62.3	26.8	76.7 ± 2.5	45.7	68.4	54.4	96.6 ± 1.5
